Reference: patent US9809853B2, “Calcium-activated chloride channel involved in human sweat formation” (BRAIN Biotechnology Research and Information Network AG, priority 2012, dated 2017)

Experiments:
[1] = target: T1, CaCC (Ca^2+-activated chloride channels) in NCL-SG3-hsYFP cells (Homo sapiens, UniProt Q5XXA6); assay: hsYFP fluorescence quenching (Cl^− efflux/I^− influx) assay in NCL-SG3-hsYFP CaCC activity sensor cells; assay type: cell-based; conditions: for Effect on hsYFP quenching by Cl^− efflux/I^− influx mediated by ATP: 25 μM; for Dose dependence of inhibition of CaCC-mediated Cl^− efflux: increasing inhibitor concentrations, stimulation with 330 μM ATP
T1 sequence (Q5XXA6 1-986): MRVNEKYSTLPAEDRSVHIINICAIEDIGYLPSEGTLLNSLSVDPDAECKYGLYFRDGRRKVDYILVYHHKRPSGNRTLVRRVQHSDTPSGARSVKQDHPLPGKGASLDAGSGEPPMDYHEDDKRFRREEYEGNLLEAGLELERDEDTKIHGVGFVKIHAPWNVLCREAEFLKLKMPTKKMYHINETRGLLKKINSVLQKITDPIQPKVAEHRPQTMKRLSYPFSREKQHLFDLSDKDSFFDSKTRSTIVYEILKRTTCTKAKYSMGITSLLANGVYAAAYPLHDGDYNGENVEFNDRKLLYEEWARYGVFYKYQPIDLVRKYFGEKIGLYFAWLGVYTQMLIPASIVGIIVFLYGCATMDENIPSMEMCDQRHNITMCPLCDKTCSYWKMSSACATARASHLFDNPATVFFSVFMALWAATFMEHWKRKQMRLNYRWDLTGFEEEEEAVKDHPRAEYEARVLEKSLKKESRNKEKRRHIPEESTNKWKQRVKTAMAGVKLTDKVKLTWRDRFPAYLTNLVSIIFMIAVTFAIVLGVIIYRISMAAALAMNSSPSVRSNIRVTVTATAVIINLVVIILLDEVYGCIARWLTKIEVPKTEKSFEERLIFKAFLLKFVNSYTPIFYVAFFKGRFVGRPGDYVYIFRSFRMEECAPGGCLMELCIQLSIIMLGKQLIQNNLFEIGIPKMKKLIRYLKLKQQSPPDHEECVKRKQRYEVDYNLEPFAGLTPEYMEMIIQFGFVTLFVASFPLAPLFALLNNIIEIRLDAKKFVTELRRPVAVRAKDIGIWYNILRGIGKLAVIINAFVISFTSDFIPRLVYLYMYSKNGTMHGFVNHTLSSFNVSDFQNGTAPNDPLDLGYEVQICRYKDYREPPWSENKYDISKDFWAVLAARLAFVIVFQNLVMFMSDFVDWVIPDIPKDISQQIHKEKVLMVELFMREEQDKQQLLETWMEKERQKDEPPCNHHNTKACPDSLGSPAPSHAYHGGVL
Protocol: The halide inside the cell functionally interacts with the halide-sensitive cytoplasmic indicator protein, which leads to a quenching of the signal provided by the halide-sensitive cytoplasmic indicator protein. The more halide (such as e.g. iodide) flows into the cell, the weaker the signal emitted by the halide-sensitive cytoplasmic indicator protein becomes. This alteration of the signal emitted by the halide-sensitive cytoplasmic indicator protein is determined in a third step of the method of the invention. Due to the fact that the influx of halide into the cell is proportional to the efflux of chloride ions, the halide influx is used as a direct measure for chloride secretion. To determine the amount of chloride secretion, the fluorescence decrease is plotted against time (Δfluorescence/Δtime) and the initial slope of the resulting graph represents the iodide influx rate (sec^−1), which in turn is directly proportional to the chloride efflux rate, representing the amount of chloride secretion per time. In a fourth step, this amount of chloride secretion determined in the presence of a test compound is compared to the amount of chloride secretion determined in the absence of a said compound.
Effect of CaCC inhibitors on sweat gland-specific Ca^2+-dependent […] and proportional I^− influx was determined using NCL-SG3-hsYFP cells. Quenching of intracellular hsYFP fluorescence was measured and plotted over time. Exemplary raw data (B) and fitted curves are shown (A). NCL-SG3-hsYFP cells were incubated with 50 μM tannic acid (TA), 25 μM niflumic acid (NFA), 25 μM 5-nitro-2-(3-phenylpropyl-amino) benzoic acid (NPPB), 100 μM epigallocatechin-3-gallate (EGCG) for 15 min and then stimulated with 330 μM ATP.
Sweat gland-specific Ca^2+-dependent Cl^− efflux and a proportional I^− influx was determined using NCL-SG3-hsYFP cells. Quenching of intracellular hsYFP fluorescence was measured and plotted over time. Exemplary fitted curves are shown. NCL-SG3-hsYFP cells were incubated with increasing concentrations of tannic acid (TA) and then stimulated with 330 μM ATP. […] NCL-SG3-hsYFP cells were incubated with increasing concentrations of CaCC inhibitors and quenching of intracellular hsYFP fluorescence was measured after stimulation with ATP. The rate of […] (sec^−1), which is proportional to Ca^2+-dependent […] was calculated from the initial slope of the measured hsYFP fluorescence (ΔYFP fluorescence/Δtime) and is a direct measure of CaCC activity. IC50 values were determined by plotting the percentage of residual CaCC activity against the individual inhibitor concentration.
NCL-SG3-hsYFP cells were routinely cultivated in Williams' Medium E supplemented with 9% Fetal Calf Serum, 3.5 mM Glutamine, 9 ng/μl Hydrocortisone, Insulin-Transferrin-Selenium-Supplement (PAA Laboratories) at 37° C. and 5% CO2. For microplate assays, 20,000 cells were seeded in 96-well black-walled, clear bottom microplates (Costar) and cultivated for 2 days until cells reached confluency. Cells were washed three times with 100 μl modified Krebs-Henseleit (KH) buffer (137 mM NaCl, 2.7 mM KCl, 1.2 mM MgSO4, 1.2 mM KH2PO4, 4.2 mM NaHCO3, 1.3 mM CaCl2, 10 mM HEPES, pH 7.4) and incubated with the test compound in 50 μl KH-buffer for 15 min at 37° C. and 5% CO2. Microplates were transferred into an automated fluorescence plate reader (FlexStation®, Molecular Devices) and cellular hsYFP fluorescence was continuously recorded every 3.5 sec until end of the experiment (excitation at 485 nm, emission at 535 nm, cutoff 515 nm).

[2] = tested on: CaCCs in human colonic epithelial cells; conditions: reference (44); cited from earlier work

Compound | Quenching of hsYFP fluorescence after addition of Ca^2+-elevating agent ([1]; 1 μM) | Effect on CaCC-mediated Cl^− efflux (hsYFP quenching) mediated by ATP ([1]; 100 μM, 15 min, then 330 μM ATP) | Inhibition of CaCCs / Cl^− currents [2] | Effect on hsYFP quenching by Cl^− efflux/I^− influx mediated by ATP ([1]; 15 min, then 330 μM ATP) | Dose dependence of inhibition of CaCC-mediated Cl^− efflux [1]
C[C@H](CCC(=O)O)C[C@H](C)C[C@H](C)C(=O)/C=C(\O)[C@H](C)C[C@H](C)C/C=C/[C@@H](C)[C@@H](O)[C@@H](C)[C@@H](O)C[C@@H]1CC[C@@](C)([C@H]2CC[C@@](C)([C@@H](C)O)O2)O1 [ionomycin] | quick quenching of the hsYFP fluorescence followed by a slow recovery |  |  |  | 
epigallocatechin-3-gallate [EGCG] |  | no effect | effectively inhibits |  | 
O=C(O)c1cccnc1Nc1cccc(C(F)(F)F)c1 [NFA, niflumic acid] |  |  |  | significant reduction of hsYFP quenching | antagonized CaCC-mediated Cl^− efflux in a dose-dependent manner
O=C(O)c1cc([N+](=O)[O-])ccc1NCCCc1ccccc1 [NPPB, 5-nitro-2-(3-phenylpropyl-amino) benzoic acid] |  |  |  | significant reduction of hsYFP quenching | antagonized CaCC-mediated Cl^− efflux in a dose-dependent manner
